# Laboratory results published in ChEMBL document CHEMBL4368862, “Design, synthesis, and anticancer activity evaluation of irreversible allosteric inhibitors of the ubiquitin-conjugating enzyme Ube2g2” (Medchemcomm, 2018).
# The source made the active and inactive calls. The rule behind the calls is not given here.
# Experiments:
# [1] = molecular target: T1, Ubiquitin-conjugating enzyme E2 G2 (Homo sapiens) (UniProt P60604); assay: Binding affinity to recombinant TEV cleavage site-fused-His6-tagged Ube2g2 (unknown origin) expressed in Escherichia coli Rosetta2 (DE3) assessed as compound-protein complex formation at 5 uL measured after overnight incubation at pH 7.4 by LC/MS analysis
# T1 sequence (whole entry): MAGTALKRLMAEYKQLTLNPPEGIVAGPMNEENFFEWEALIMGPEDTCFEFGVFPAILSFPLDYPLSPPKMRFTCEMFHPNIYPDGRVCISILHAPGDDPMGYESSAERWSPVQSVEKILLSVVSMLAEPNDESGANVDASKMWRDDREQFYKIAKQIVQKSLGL
# [2] = molecular target: T1, Ubiquitin-conjugating enzyme E2 G2 (Homo sapiens); assay: (§1) Binding affinity to recombinant TEV cleavage site-fused-His6-tagged Ube2g2 (unknown origin) expressed in Escherichia coli Rosetta2 (DE3) assessed as molecular weight of compound-protein conjugate at 5 uL measured after overnight incubation at pH 8.5 by LC/MS analysis (reference value: 18491 Da)
# [3] = molecular target: T1, Ubiquitin-conjugating enzyme E2 G2 (Homo sapiens); assay: as §1, with “assessed as modification of Cys75 residue by measuring molecular weight” for “assessed as molecular weight”
# [4] = molecular target: T1, Ubiquitin-conjugating enzyme E2 G2 (Homo sapiens); assay: as §1, with “assessed as modification of Cys89 residue by measuring molecular weight” for “assessed as molecular weight”
# [5] = molecular target: T1, Ubiquitin-conjugating enzyme E2 G2 (Homo sapiens); assay: as §1, with “assessed as modification of Cys48 residue by measuring molecular weight” for “assessed as molecular weight”
Activity [1],Activity [2],Activity [3] [Da],Activity [4] [Da],Activity [5] [Da],SMILES
inactive,18900 to 19300 Da,,,,CC(C)(C)OC(=O)N[C@H](C=O)Cc1ccc(-c2cc(Cl)cc(Cl)c2)cc1
inactive,18900 Da,,,,CCOC(=O)/C=C/[C@H](Cc1ccc(-c2cc(Cl)cc(Cl)c2)cc1)NC(=O)OC(C)(C)C
inactive,18900 Da,,,,C=CC(=O)N[C@@H](/C=C/C(=O)OCC)Cc1ccc(-c2cc(Cl)cc(Cl)c2)cc1
inactive,inactive,,,,C=CCC(=O)N[C@@H](/C=C/C(=O)OCC)Cc1ccc(-c2cc(Cl)cc(Cl)c2)cc1
inactive,18900 Da,,,,C=CC(=O)N[C@H](/C=C/C(=O)OCC)Cc1ccc(-c2cc(Cl)cc(Cl)c2)cc1
inactive,inactive,,,,C=CCC(=O)N[C@H](/C=C/C(=O)OCC)Cc1ccc(-c2cc(Cl)cc(Cl)c2)cc1
inactive,18900 Da,,,,C=CC(=O)N[C@@H](/C=C/C(=O)O)Cc1ccc(-c2cc(Cl)cc(Cl)c2)cc1

# The next lines start with the molecule.
SMILES,Activity [1],Activity [2],Activity [3] [Da],Activity [4] [Da],Activity [5] [Da]
C=CCC(=O)N[C@@H](CO)Cc1ccc(-c2cc(Cl)cc(Cl)c2)cc1,inactive,inactive,,,
C=CC(=O)N[C@@H](Cc1ccc(-c2cc(Cl)cc(Cl)c2)cc1)[C@H](O)[C@@H](O)C(=O)O,inactive,inactive,,,
C=CCC(=O)N[C@H](Cc1ccc(-c2cc(Cl)cc(Cl)c2)cc1)[C@@H](O)[C@H](O)C(=O)OCC,inactive,inactive,,,
C=CC(=O)N[C@H](CO)Cc1ccc(-c2cc(Cl)cc(Cl)c2)cc1,inactive,,19200,19500,18800
C=CC(=O)N[C@@H](Cc1ccc(-c2cc(Cl)cc(Cl)c2)cc1)[C@H](O)[C@@H](O)C(=O)OCC,inactive,18900 Da,,,
C=CCC(=O)N[C@@H](Cc1ccc(-c2cc(Cl)cc(Cl)c2)cc1)[C@H](O)[C@@H](O)C(=O)O,inactive,inactive,,,
C=CC(=O)N[C@H](Cc1ccc(-c2cc(Cl)cc(Cl)c2)cc1)[C@@H](O)[C@H](O)C(=O)OCC,inactive,18900 Da,,,
C=CCC(=O)N[C@H](CO)Cc1ccc(-c2cc(Cl)cc(Cl)c2)cc1,inactive,inactive,,,
C=CCC(=O)N[C@@H](/C=C/C(=O)O)Cc1ccc(-c2cc(Cl)cc(Cl)c2)cc1,inactive,inactive,,,
C=CCC(=O)N[C@@H](Cc1ccc(-c2cc(Cl)cc(Cl)c2)cc1)[C@H](O)[C@@H](O)C(=O)OCC,inactive,inactive,,,
C=CC(=O)N[C@@H](CO)Cc1ccc(-c2cc(Cl)cc(Cl)c2)cc1,inactive,18800 to 19200 Da,,,
C=CC(=O)N[C@H](Cc1ccc(-c2cc(Cl)cc(Cl)c2)cc1)[C@@H](O)[C@H](O)C(=O)O,inactive,18900 to 19300 Da,,,
C=CCC(=O)N[C@H](Cc1ccc(-c2cc(Cl)cc(Cl)c2)cc1)[C@@H](O)[C@H](O)C(=O)O,inactive,inactive,,,
